According to ChEMBL document CHEMBL3217566, “Unprecedented inhibition of resistant penicillin binding proteins by bis-2-oxoazetidinyl macrocycles” (Medchemcomm, 2012):

Assays:
Enterococcus faecium = test: Inhibition of Enterococcus faecium D63r PBP5 assessed as assessed as residual activity at 1 mM after 4 hrs by fluorescence spectroscopy in presence of fluorescein-labeled ampicillin
Staphylococcus aureus = test: Inhibition of methicillin-resistant Staphylococcus aureus ATCC 43300 PBP5 assessed as residual activity at 1 mM after 4 hrs by fluorescence spectroscopy in presence of fluorescein-labeled ampicillin
Actinomadura sp. R39 = test: Inhibition of Actinomadura R39 D,D-peptidase assessed as inhibition of hydrolysis of thiolester substrate S2d measured as residual activity at 100 uM after 1 hr by Ellman's method

| Compound | Activity (Enterococcus faecium) | Activity (Staphylococcus aureus) | Activity (Actinomadura sp. R39) |
| --- | --- | --- | --- |
| C=CCCCCC(=O)N[C@H]1CN(C(=O)CCCC)C1=O | 5% | 100% | 97% |
| C=CCCCCC(=O)N[C@H]1CN(C(=O)CCC=C)C1=O | 14% | 89% | 91% |
| CCCCC(=O)N1C[C@H](NC(=O)CCCCCCCCCCC(=O)N[C@H]2CN(C(=O)CCCC)C2=O)C1=O | 3% | 90% | 89% |
| C=CCCCCC(=O)N[C@H]1CN(C(=O)CCCCC=C)C1=O | 23% | 81% | 80% |
| C=CCCCCC(=O)N1C[C@H](NC(=O)CCC=C)C1=O | 50% | 77% | 72% |
| C=CCCCC(=O)N1C[C@H](NC(=O)CCC=C)C1=O | 39% | 100% | 99% |
| C=CCCCC(=O)N[C@H]1CN(C(=O)CCCC=C)C1=O | 17% | 100% | 90% |
| C=CCCCCC(=O)N[C@H]1CN(C(=O)CCCC=C)C1=O | 21% | 85% | 74% |
| CCCCCCC(=O)N[C@H]1CN(C(=O)CC/C=C/CCC(=O)N2C[C@H](NC(=O)CCCCCC)C2=O)C1=O | 0% | 100% | 100% |
| CCCCC(=O)N1C[C@H](NC(=O)CCCC/C=C/CCCCC(=O)N[C@H]2CN(C(=O)CCCC)C2=O)C1=O | 5% | 89% | 90% |
| CCCCCCC(=O)N[C@H]1CN(C(=O)CCCCCCC(=O)N2C[C@H](NC(=O)CCCCCC)C2=O)C1=O | 10% | 99% | 74% |
| C=CCCCCC(=O)N1C[C@H](NC(=O)CCCC=C)C1=O | 15% | 82% | 86% |
| C=CCCC(=O)N1C[C@H](NC(=O)CCCCCC)C1=O | 6% | 100% | 92% |
| C=CCCC(=O)N[C@H]1CN(C(=O)CCC=C)C1=O | > 100% | 79% | 72% |
| C=CCCCC(=O)N[C@H]1CN(C(=O)CCC=C)C1=O | 14% | 93% | 98% |
